Among the data in ChEMBL document CHEMBL3797121, “Novel nucleoside-based antimalarial compounds” (Bioorg Med Chem Lett, 2016) are selectivity ratio and IC50 values, retold here.

Data set [1] can be described thus: Selectivity index, ratio of IC50 for rat L6 cells to IC50 for erythrocytic stage of Plasmodium falciparum K1. Type of data set: toxicity, cell-based. The following applies: read-out: Ratio IC50.
A further data set deals with L6. The data set can be described thus: Cytotoxicity against rat L6 cells. The data set is classed as cell-based.
In another data set the test system is Plasmodium falciparum. The experiment in a line: Antimalarial activity against erythrocytic stage of Plasmodium falciparum K1 after 18 hrs by [3H]-hypoxanthine incorporation assay. Type of data set: functional, organism-based.

pIC50: −log10 of the molar value.

The pIC50 is the negative decadic logarithm of the IC50, by convention in mol/L. Take `C[C@H]1O[C@@H](n2cnc3c(N)nc(F)nc32)[C@H](O)[C@@H]1O`: the selectivity ratio in data set [1] was determined as 2. Further, the pIC50 in the data set on L6 was 5.68; in the data set with Plasmodium falciparum it was 6.00.
In the data set with L6, `CCN(CC)CCCC(C)Nc1ccnc2cc(Cl)ccc12` (centres undefined) [CHLOROQUINE] gave a pIC50 of 3.92.
Consider `C[C@H]1O[C@@H](n2cnc3c(N)nc(I)nc32)[C@H](O)[C@@H]1O`, for which, in data set [1], the selectivity ratio turned out to be 2. In addition, the results for the pIC50 in the data set with L6 and in the data set with Plasmodium falciparum were 3.96 and 4.25, respectively.
Regarding `CNc1nc(I)nc2c1ncn2[C@@H]1O[C@H](C)[C@@H](O)[C@H]1O`, the selectivity ratio in data set [1] turned out to be 2. Moreover, the figures for the pIC50 with L6 and in the data set on Plasmodium falciparum were 3.86 and 4.19, respectively.
Turning to `C[C@H]1O[C@@H](n2cnc3c(N)nc(N)nc32)[C@H](O)[C@@H]1O`, in data set [1], the selectivity ratio was found to be 22. The results for the pIC50 with L6 and in the data set with Plasmodium falciparum were 3.47 and 4.81, respectively.
In the case of `C[C@H]1O[C@@H](n2cnc3c(N)nc(N=[N+]=[N-])nc32)[C@H](O)[C@@H]1O`, the selectivity ratio in data set [1] was 2. Moreover, the pIC50 in the data set on L6 was 3.74; with Plasmodium falciparum, 3.97.
In the same order, the values of `C[C@H]1O[C@@H](n2cnc3c(N)nc(NN)nc32)[C@H](O)[C@@H]1O` are 4, 3.73 and 4.38.
With `C[C@H]1O[C@@H](n2cnc3c(N)nc(C#N)nc32)[C@H](O)[C@@H]1O`, the selectivity ratio in data set [1] is 5. Also, the figures for the pIC50 with L6 and in the data set with Plasmodium falciparum were 3.75 and 4.47, respectively.
With `CNc1ncnc2c1ncn2[C@@H]1O[C@H](C)[C@@H](O)[C@H]1O`, the selectivity ratio in data set [1] was 30. The pIC50 was 3.58 in the data set with L6 and 5.05 with Plasmodium falciparum.
In the same order, the values of `CNc1nc(C#N)nc2c1ncn2[C@@H]1O[C@H](C)[C@@H](O)[C@H]1O` are 3, 4.07 and 4.51.
In the same order, the values of `CNc1nc(F)nc2c1ncn2[C@@H]1O[C@H](C)[C@@H](O)[C@H]1O` are 21, 3.63 and 4.94.
Consider `C[C@H]1O[C@@H](n2cnc3c(N)nc(Cl)nc32)[C@H](O)[C@@H]1O`, for which, in data set [1], the selectivity ratio is 8. For the same compound, the negative-log IC50 (pIC50) in the data set on L6 is 3.83; in the data set on Plasmodium falciparum it was 4.76.
